Experimental data taken from EPA's ToxRefDB 2.

Tests used:
rat [1] = settings: Multigenerational reproductive toxicity study, other, Oral, Feed, dose end: 2 generation
mouse = settings: Carcinogenicity, cd1, Oral, Feed, dose end: 24 month, group: systemic
dog = settings: Chronic toxicity, beagle, Oral, Feed, dose end: 104 week, group: systemic
rat [2] = settings: Prenatal developmental toxicity study, Crl: CD BR, Oral, Gavage/Intubation, dose end: 15 GD
rabbit [3] = settings: Prenatal developmental toxicity study, other, Oral, Gavage/Intubation, dose end: 18 GD
rabbit [4] = settings: Prenatal developmental toxicity study, new zealand white, Oral, Gavage/Intubation, dose end: 18 GD
rat [5] = settings: Subchronic oral toxicity in rodents, wistar, Feed, dose end: 3 month, group: systemic, systemic / organ weight / liver / nos
rat [6] = settings: Chronic toxicity, wistar, Oral, Feed, dose end: 105 week, group: systemic
rat [7] = settings: Subchronic oral toxicity in rodents, sprague dawley, Gavage/Intubation, dose end: 90 day, group: systemic
rat [8] = settings: Sub-acute repeat dose toxicity, sprague dawley, Oral, Gavage/Intubation, dose end: 10 day, group: systemic
[9] = group: offspring, systemic / in life observation / body weight / offspring (pup) weight
[10] = group: parental, systemic / in life observation / body weight / body weight gain + systemic / clinical chemistry / gamma glutamyl transferase (ggt) / gamma …
[11] = group: parental, systemic / in life observation / body weight / body weight gain + systemic / in life observation / food consumption / food consumption + …
[12] = systemic / organ weight / liver / relative to body weight
[13] = systemic / organ weight / kidney / relative to body weight + systemic / organ weight / pancreas / relative to body weight + systemic / organ…
[14] = group: developmental, developmental / developmental malformation / bone / incomplete ossification
[15] = group: developmental, developmental / developmental malformation / bone / incomplete ossification + systemic / in life observation / body weight / fetal weight + …
[16] = group: maternal, systemic / in life observation / body weight / body weight gain + systemic / in life observation / food consumption / food consumption + …
[17] = group: developmental, developmental / developmental malformation / bone / [other]
[18] = group: maternal, systemic / in life observation / body weight / body weight gain
[19] = group: maternal, systemic / in life observation / body weight / body weight gain + systemic / in life observation / food consumption / food consumption
[20] = group: developmental, systemic / in life observation / body weight / fetal weight
[21] = group: maternal, reproductive / reproductive performance / reproductive performance other / runts
[22] = systemic / in life observation / body weight / body weight gain + systemic / organ weight / kidney / absolute + systemic / organ weight / …
[23] = systemic / clinical chemistry / alkaline phosphatase (alp/alk) / alkaline phosphatase (alp/alk) + systemic / clinical chemistry / calcium / …
[24] = systemic / pathology microscopic / liver / inflammation + systemic / clinical chemistry / aspartate aminotransferase (ast/sgot) / aspartate …
[25] = systemic / clinical chemistry / cholesterol / cholesterol + systemic / in life observation / body weight / body weight + systemic / organ …

CSc1nnc(C(C)(C)C)c(=O)n1N [Metribuzin] showed an LEL (rat [1]; [9]) of 7.5 mg/kg/day, an LOAEL (rat [1]; [9]) of 7.5 mg/kg/day and an NEL (rat [1]; [9]) of 1.5 mg/kg/day. For the same molecule, the NOAEL (rat [1]; [9]) was 1.5 mg/kg/day, the LEL (rat [1]; [10]) was 7.5 mg/kg/day and the LOAEL (rat [1]; [10]) was 7.5 mg/kg/day. It also gave an NEL (rat [1]; [11]) of 1.5 mg/kg/day, an NOAEL (rat [1]; [11]) of 1.5 mg/kg/day and an LOAEL (mouse; systemic / hematology / hematocrit (hct) / hematocrit (hct) + systemic / hematology / hemoglobin (hgb) / hemoglobin (hgb)) of 567 mg/kg/day. It also gave an NOAEL (mouse; systemic / hematology / hematocrit (hct) / hematocrit (hct) + systemic / hematology / hemoglobin (hgb) / hemoglobin (hgb) + systemic / organ…) of 139 mg/kg/day, an LEL (mouse; [12]) of 35 mg/kg/day and an NEL (mouse; [12]) of less than 35 mg/kg/day. It also gave an LOAEL (dog; systemic / clinical chemistry / cholesterol / cholesterol + systemic / hematology / blood clotting / blood clotting - prothrombin time + …) of 37.5 mg/kg/day, an LEL (dog; [13]) of 0.625 mg/kg/day and an NEL (dog; [13]) of less than 0.625 mg/kg/day. For the same molecule, the NOAEL (dog; systemic / organ weight / kidney / relative to body weight + systemic / organ weight / pancreas / relative to body weight + systemic / …) was 2.5 mg/kg/day, the LEL (rat [2]; [14]) was 25 mg/kg/day and the NEL (rat [2]; [14]) was less than 25 mg/kg/day. The LOAEL (rat [2]; [15]) was 200 mg/kg/day, the NOAEL (rat [2]; [15]) was 70 mg/kg/day and the LEL (rat [2]; [16]) was 25 mg/kg/day. For the same molecule, the LOAEL (rat [2]; [16]) was greater than 200 mg/kg/day, the NEL (rat [2]; [16]) was less than 25 mg/kg/day and the NOAEL (rat [2]; [16]) was no less than 200 mg/kg/day. For the same molecule, the LEL (rabbit [3]; [17]) was 85 mg/kg/day, the LOAEL (rabbit [3]; [17]) was 85 mg/kg/day and the NEL (rabbit [3]; [17]) was 30 mg/kg/day. The NOAEL (rabbit [3]; [17]) was 30 mg/kg/day, the LEL (rabbit [3]; [18]) was 30 mg/kg/day and the LOAEL (rabbit [3]; [18]) was 30 mg/kg/day. It also gave an NEL (rabbit [3]; [19]) of 10 mg/kg/day, an NOAEL (rabbit [3]; [19]) of 10 mg/kg/day and an LEL (rabbit [4]; [20]) of 45 mg/kg/day. It also gave an LOAEL (rabbit [4]; [20]) of 45 mg/kg/day, an NEL (rabbit [4]; [20]) of 15 mg/kg/day and an NOAEL (rabbit [4]; [20]) of 15 mg/kg/day. It also gave an LOAEL (rabbit [4]; group: maternal, reproductive / reproductive performance / aborted / aborted + systemic / in life observation / body weight / body weight) of 135 mg/kg/day, an NOAEL (rabbit [4]; group: maternal, reproductive / reproductive performance / aborted / aborted + systemic / in life observation / body weight / body weight + reproductive / …) of 45 mg/kg/day and an LEL (rabbit [4]; [21]) of 45 mg/kg/day. The NEL (rabbit [4]; [21]) was 15 mg/kg/day, the LEL (rat [5]) was 3 mg/kg/day and the LOAEL (rat [5]) was 3 mg/kg/day. For the same molecule, the NEL (rat [5]) was 1.25 mg/kg/day, the NOAEL (rat [5]) was 1.25 mg/kg/day and the LOAEL (rat [6]; systemic / in life observation / body weight / body weight gain) was 14.4 mg/kg/day. The NEL (rat [6]; [22]) was 1.3 mg/kg/day, the NOAEL (rat [6]; [22]) was 5.27 mg/kg/day and the LEL (rat [6]; systemic / organ weight / lung / relative to body weight) was 1.87 mg/kg/day.

Molecule Clc1cccc(Cl)c1 [1,3-Dichlorobenzene] has an LOAEL (rat [7]; [23]) greater than 588 mg/kg/day, an NOAEL (rat [7]; [23]) of no less than 588 mg/kg/day and an LEL (rat [7]; [24]) of 9 mg/kg/day. For the same molecule, the NEL (rat [7]; [24]) was less than 9 mg/kg/day, the NEL (rat [8]; systemic / clinical chemistry / cholesterol / cholesterol + systemic / in life observation / body weight / body weight + systemic / in life …) was 37 mg/kg/day and the LOAEL (rat [8]; [25]) was greater than 735 mg/kg/day. For the same molecule, the NOAEL (rat [8]; [25]) was no less than 735 mg/kg/day and the LEL (rat [8]; systemic / organ weight / liver / nos + systemic / pathology microscopic / liver / necrosis) was 147 mg/kg/day.
